Measured values as given in patent EP3915971A1, “PHENYL-S(O)N-PHENYLAMIDINES AND THE USE THEREOF AS FUNGICIDES” (Bayer Aktiengesellschaft, priority 2020, dated 2021).

Key:
[1] = LogP measurement by HPLC on reversed phase columns (EEC directive 79/831 Annex V.A8); assay type: physicochemical
Method: Measurement of LogP values was performed according to EEC directive 79/831 Annex V.A8 by HPLC (High Performance Liquid Chromatography) on reversed phase columns with the following methods: • ^[a] LogP value is determined by measurement of LC-UV, in an acidic range, with 0.1% formic acid in water and acetonitrile as eluent (linear gradient from 10% acetonitrile to 95% acetonitrile). • ^[b] LogP value is determined by measurement of LC-UV, in a neutral range, with 0.001 molar ammonium acetate solution in water and acetonitrile as eluent (linear gradient from 10% acetonitrile to 95% acetonitrile). • ^[c] LogP value is determined by measurement of LC-UV, in an acidic range, with 0.1% phosphoric acid and acetonitrile as eluent (linear gradient from 10% acetonitrile to 95% acetonitrile).
If more than one LogP value is available within the same method, all the values are given and separated by "+". […]

Phakospora pachyrhizi = assay: in vivo preventive test on Phakospora pachyrhizi (soybean rust); settings: for pest or weed control at 500 ppm: Glycine max, 264 h, 500 ppm of active ingredient, preventive spray on young soybean plants, inoculation after 24 hours, evaluated 11 days after inoculation, 0% = control plants, 100% = no disease, read-out: efficacy; for efficacy: 500 ppm
Method: Example A: in vivo preventive test on Phakospora pachyrhizi (soybean rust) [table] The active ingredients were made soluble and homogenized in a mixture of Dimethyl sulfoxide/Acetone/ /Tween® 80 and then diluted in water to the desired concentration. The young plants of soybean were treated by spraying the active ingredient prepared as described above. Control plants were treated only with an aqueous solution of Acetone/Dimethyl sulfoxide/ Tween® 80. After 24 hours, the plants were contaminated by spraying the leaves with an aqueous suspension of Phakospora pachyrhizi spores. The contaminated soybean plants were incubated for 24 hours at 24°C and at 100% relative humidity and then for 10 days at 24°C and at 70-80% relative humidity. The test was evaluated 11 days after the inoculation. 0% means an efficacy which corresponds to that of the control plants while an efficacy of 100% means that no disease was observed.

[2] = reversed phase HPLC columns, method [a]: LC-UV, acidic range, 0.1% formic acid in water and acetonitrile as eluent (linear gradient 10% to 95% acetonitrile)
[3] = method [a]: LC-UV, acidic range, 0.1% formic acid in water and acetonitrile as eluent (linear gradient 10% to 95% acetonitrile)

Row | Structure (SMILES) | chromatographic logP [1, 2] | pest or weed control at 500 ppm (Phakospora pachyrhizi) | chromatographic logP [1, 3] | efficacy (Phakospora pachyrhizi) | chromatographic logP ([1]; reversed phase HPLC columns, method [b]: LC-UV, neutral range, 0.001 molar ammonium acetate solution in water and acetonitrile as eluent (linear gradient 10% to 95% acetonitrile))
1 | CCN(C)C=Nc1cc(F)c(Sc2ccccc2C)cc1C [Example I-022, N-ethyl-N'-[5-fluoro-2-methyl-4-[(2-methylphenyl)thio]phenyl]-N-methylmethanimidamide] | 1.66 | ≥ 70% |  |  | 
2 | CCN(C)C=Nc1cc(F)c(Sc2ccccc2Cl)cc1C [Example I-023, N'-[4-[(2-chlorophenyl)thio]-5-fluoro-2-methylphenyl]-N-ethyl-N-methylmethanimidamide] | 1.69 | ≥ 70% |  |  | 
3 | CCN(C)C=Nc1cc(Cl)c(Sc2ccccc2F)cc1C [Example I-024, N'-[5-chloro-4-[(2-fluorophenyl)thio]-2-methylphenyl]-N-ethyl-N-methylmethanimidamide] | 1.61 | ≥ 70% |  |  | 
4 | CCN(C)C=Nc1cc(Cl)c(Sc2ccccc2C)cc1C [Example I-025, N'-[5-chloro-2-methyl-4-[(2-methylphenyl)thio]phenyl]-N-ethyl-N-methylmethanimidamide] | 1.81 | ≥ 70% |  |  | 
5 | CCN(C)C=Nc1cc(Cl)c(S(=O)(=O)c2ccccc2F)cc1C [Example I-026, N'-[5-chloro-4-(2-fluorophenyl)sulfonyl-2-methylphenyl]-N-ethyl-N-methylmethanimidamide] | 1.42 | ≥ 70% |  |  | 
6 | CCN(C)C=Nc1cc(Br)c(Sc2ccccc2)cc1C [Example I-039, N'-(5-bromo-2-methyl-4-phenylsulfanylphenyl)-N-ethyl-N-methylmethanimidamide] | 1.66 | ≥ 70% |  |  | 
7 | CCN(C)C=Nc1cc(Cl)c(Sc2ccccc2)cc1C [Example I-041, N'-(5-chloro-2-methyl-4-phenylsulfanylphenyl)-N-ethyl-N-methylmethanimidamide] | 1.63 | ≥ 70% |  |  | 
8 | CCN(C)C=Nc1cc(Br)c(Sc2ccccc2C)cc1C [Example I-042, N'-[5-bromo-2-methyl-4-[(2-methylphenyl)thio]phenyl]-N-ethyl-N-methylmethanimidamide] | 1.81 | ≥ 70% |  |  | 
9 | CCN(C)C=Nc1cc(Br)c(S(=O)(=O)c2ccccc2Cl)cc1C [Example I-044, N'-[5-bromo-4-(2-chlorophenyl)sulfonyl-2-methylphenyl]-N-ethyl-N-methylmethanimidamide] | 1.58 | ≥ 70% |  |  | 
10 | CCN(C)C=Nc1cc(Br)c(S(=O)(=O)c2ccccc2C)cc1C [Example I-045, N'-[5-bromo-2-methyl-4-(2-methylphenyl)sulfonylphenyl]-N-ethyl-N-methylmethanimidamide] | 1.53 | ≥ 70% |  |  | 
11 | CCN(C)C=Nc1cc(Br)c(Sc2ccccc2F)cc1C [Example I-046, N'-[5-bromo-4-[(2-fluorophenyl)thio]-2-methylphenyl]-N-ethyl-N-methylmethanimidamide] | 1.66 | ≥ 70% |  |  | 
12 | CCN(C)C=Nc1cc(Br)c(Sc2ccccc2Cl)cc1C [Example I-047, N'-[5-bromo-4-[(2-chlorophenyl)thio]-2-methylphenyl]-N-ethyl-N-methylmethanimidamide] | 1.84 | ≥ 70% |  |  | 
13 | CCN(C)C=Nc1cc(C)c([S+]([O-])c2ccccc2C#N)cc1C (stereo not drawn) [Example I-052, N'-[4-(2-cyanophcnyl)sulfinyl-2,5-dimethylphenyl]-N-ethyl-N-methylmethanimidamide] |  |  | 0.73 | at least 70% | 
14 | CCN(C)C=Nc1cc(C#N)c(Sc2ccccc2)cc1C [Example I-054, N'-(5-cyano-2-methyl-4-phenylsulfanylphenyl)-N-ethyl-N-methylmethanimidamide] | 1.42 | ≥ 70% |  |  | 
15 | CCN(C)C=Nc1cc(C#N)c(Sc2ccccc2C)cc1C [Example I-058, N'-[5-cyano-2-methyl-4-[(2-methylphenyl)thio]phenyl]-N-ethyl-N-methylmethanimidamide] | 1.61 | ≥ 70% |  |  | 
16 | CCN(C)C=Nc1cc(C#N)c(Sc2ccccc2Cl)cc1C [Example I-060, N'-[4-[(2-chlorophenyl)thio]-5-cyano-2-methylphenyl]-N-ethyl-N-methylmethanimidamide] | 1.66 | ≥ 70% |  |  | 

Row | Structure (SMILES) | chromatographic logP [1, 2] | pest or weed control at 500 ppm (Phakospora pachyrhizi) | chromatographic logP [1, 3] | efficacy (Phakospora pachyrhizi) | chromatographic logP ([1]; reversed phase HPLC columns, method [b]: LC-UV, neutral range, 0.001 molar ammonium acetate solution in water and acetonitrile as eluent (linear gradient 10% to 95% acetonitrile))
17 | CCN(C)C=Nc1cc(Cl)c(Sc2ccccc2Cl)cc1C [Example I-066, N'-[5-chloro-4-[(2-chlorophenyl)thio]-2-methylphenyl]-N-ethyl-N-methylmethanimidamide] | 1.84 | ≥ 70% |  |  | 
18 | CCN(C)C=Nc1cc(Cl)c(Sc2ccccc2C#N)cc1C [Example I-067, N'-[5-chloro-4-[(2-cyanophenyl)thio]-2-methylphenyl]-N-ethyl-N-methylmethanimidamide] | 1.53 | ≥ 70% |  |  | 
19 | CCN(C)C=Nc1cc(Br)c(Sc2ccccc2C#N)cc1C [Example I-068, N'-[5-bromo-4-[(2-cyanophenyl)thio]-2-methylphenyl]-N-ethyl-N-methylmethanimidamide] | 1.53 | ≥ 70% |  |  | 
20 | CCN(C)C=Nc1cc(C)c(Sc2ccccc2C#N)cc1C [Example I-069, N'-[4-[(2-cyanophenyl)thio]-2,5-dimethylphenyl]-N-ethyl-N-methylmethanimidamide] | 1.42 | ≥ 70% |  |  | 
21 | CCN(C)C=Nc1cc(C)c(Sc2ccccc2F)cc1Br [Example I-077, N'-[2-bromo-4-[(2-fluorophenyl)thio]-5-methylphenyl]-N-ethyl-N-methylmethanimidamide] | 1.75 | ≥ 70% |  |  | 
22 | CCN(C)C=Nc1cc(C)c(Sc2ccccc2C)cc1Br [Example I-078, N'-[2-bromo-5-methyl-4-[(2-methylphenyl)thio]phenyl]-N-ethyl-N-methylmethanimidamide] | 1.92 | ≥ 70% |  |  | 
23 | CCN(C)C=Nc1cc(C)c(Sc2ccccc2F)cc1C(C)C [Example I-082, N-ethyl-N'-[4-[(2-fluorophenyl)thio]-2-isopropyl-5-methylphenyl]-N-methylmethanimidamide] | 1.9 | ≥ 70% |  |  | 
24 | CCN(C)C=Nc1cc(C)c(Sc2ccccc2C)cc1C1CC1 [Example I-085, N'-[2-cyclopropyl-5-methyl-4-[(2-methylphenyl)thio]phenyl]-N-ethyl-N-methylmethanimidamide] | 1.99 | ≥ 70% |  |  | 
25 | CCc1cc(Sc2ccccc2F)c(C)cc1N=CN(C)CC [Example I-087] |  |  | 1.77 | at least 70% | 
26 | CCN(C)C=Nc1cc(C)c(Sc2ccccc2)cc1C1CC1 [Example I-090, N'-(2-cyclopropyl-5-methyl-4-phenylsulfanylphenyl)-N-ethyl-N-methylmethanimidamide] | 1.77 | ≥ 70% |  |  | 
27 | CCc1cc(S(=O)(=O)c2ccccc2C)c(C)cc1N=CN(C)CC [Example I-091, N-ethyl-N'-[2-ethyl-5-methyl-4-(2-methylphenyl)sulfonylphenyl]-N-methylmethanimidamide] | 1.37 | ≥ 70% |  |  | 
28 | CCN(C)C=Nc1cc(C)c(Sc2ccccc2F)cc1C1CC1 [Example I-097, N'-[2-cyclopropyl-4-[(2-fluorophenyl)thio]-5-methylphenyl]-N-ethyl-N-methylmethanimidamide] | 1.8 | ≥ 70% |  |  | 
29 | CCN(C)C=Nc1cc(C)c(Sc2ccccc2Cl)cc1Br [Example I-098, N'-[2-bromo-4-[(2-chlorophenyl)thio]-5-methylphenyl]-N-ethyl-N-methylmethanimidamide] | 2.05 | ≥ 70% |  |  | 
30 | CCN(C)C=Nc1cc(C)c(Sc2ccccc2Cl)cc1C1CC1 [Example I-099, N'-[4-[(2-chlorophenyl)thio]-2-cyclopropyl-5-methylphenyl]-N-ethyl-N-methylmethanimidamide] | 1.99 | ≥ 70% |  |  | 
31 | CCN(C)C=Nc1cc(C)c(Sc2ccccc2C#N)cc1C1CC1 [Example I-100, N'-[4-[(2-cyanophenyl)thio]-2-cyclopropyl-5-methylphenyl]-N-ethyl-N-methylmethanimidamide] | 1.6 | ≥ 70% |  |  | 4.74
